Reference: ChEMBL document CHEMBL1156615, “Nakijiquinones G-I, new sesquiterpenoid quinones from marine sponge” (Bioorg Med Chem, 2008)
In brackets after ≈: the same amount, converted by molar mass. Activity calls are given as the source filed them. The calls are words filed in the database; no cut-off is given here.

Tests used:
[1] = system: Bacillus subtilis; experiment: Antibacterial activity against Bacillus subtilis; format: functional
[2] = system: Escherichia coli; experiment: Antibacterial activity against Escherichia coli; format: functional
[3] = system: Micrococcus luteus; experiment: Antibacterial activity against Micrococcus luteus; format: functional
[4] = system: Staphylococcus aureus; experiment: Antibacterial activity against Staphylococcus aureus; format: functional
[5] = system: Cryptococcus neoformans; experiment: Antifungal activity against Cryptococcus neoformans; format: functional
[6] = system: Candida albicans; experiment: Antifungal activity against Candida albicans; format: functional
[7] = system: Aspergillus niger; experiment: Antifungal activity against Aspergillus niger; format: functional
[8] = system: P388; experiment: Cytotoxicity against mouse P388 cells; format: functional, cell-based
[9] = system: L1210; experiment: Cytotoxicity against mouse L1210 cells; format: functional, cell-based
[10] = system: KB; experiment: Cytotoxicity against human KB cells; format: functional, cell-based
[11] = biological target: Receptor tyrosine-protein kinase erbB-2 (Homo sapiens) (UniProt P04626); experiment: Inhibition of HER2
Receptor tyrosine-protein kinase erbB-2 (Homo sapiens), sequence (P04626 whole entry): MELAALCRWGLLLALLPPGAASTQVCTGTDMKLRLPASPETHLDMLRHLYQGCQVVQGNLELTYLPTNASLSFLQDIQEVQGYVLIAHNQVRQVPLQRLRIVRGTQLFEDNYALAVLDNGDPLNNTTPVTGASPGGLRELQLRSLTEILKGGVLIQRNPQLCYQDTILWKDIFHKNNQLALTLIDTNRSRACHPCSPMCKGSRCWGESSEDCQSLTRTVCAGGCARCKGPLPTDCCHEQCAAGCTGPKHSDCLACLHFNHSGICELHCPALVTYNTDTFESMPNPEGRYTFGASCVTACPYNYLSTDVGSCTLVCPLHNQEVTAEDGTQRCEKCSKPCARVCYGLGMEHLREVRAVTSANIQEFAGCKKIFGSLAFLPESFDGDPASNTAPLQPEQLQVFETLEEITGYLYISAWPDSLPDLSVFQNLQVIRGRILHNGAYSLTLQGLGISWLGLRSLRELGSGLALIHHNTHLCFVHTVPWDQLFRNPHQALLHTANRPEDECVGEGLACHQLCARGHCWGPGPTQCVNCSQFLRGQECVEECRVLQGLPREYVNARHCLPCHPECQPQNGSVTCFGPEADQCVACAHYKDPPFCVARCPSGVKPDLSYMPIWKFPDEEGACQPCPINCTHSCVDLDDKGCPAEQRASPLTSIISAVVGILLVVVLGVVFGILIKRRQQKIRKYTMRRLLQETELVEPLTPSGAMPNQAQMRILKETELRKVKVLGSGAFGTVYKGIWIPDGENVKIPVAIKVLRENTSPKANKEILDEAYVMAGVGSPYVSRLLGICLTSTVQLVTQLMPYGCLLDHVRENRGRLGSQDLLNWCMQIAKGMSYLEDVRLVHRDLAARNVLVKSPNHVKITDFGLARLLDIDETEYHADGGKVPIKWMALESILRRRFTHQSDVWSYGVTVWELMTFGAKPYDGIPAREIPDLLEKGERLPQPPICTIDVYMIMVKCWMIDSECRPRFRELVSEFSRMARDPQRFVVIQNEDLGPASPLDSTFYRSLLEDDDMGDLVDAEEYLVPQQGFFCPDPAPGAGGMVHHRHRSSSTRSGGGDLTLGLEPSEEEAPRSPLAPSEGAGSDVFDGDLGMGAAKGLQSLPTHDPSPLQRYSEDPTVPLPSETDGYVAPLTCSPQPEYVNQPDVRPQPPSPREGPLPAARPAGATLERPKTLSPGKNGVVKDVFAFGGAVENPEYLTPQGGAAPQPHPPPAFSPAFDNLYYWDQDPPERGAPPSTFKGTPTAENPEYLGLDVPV

Row | MIC [1] | MIC [2] | MIC [3] | MIC [4] | MIC [5] | MIC [6] | MIC [7] | Activity [11] | SMILES | IC50 [8] | IC50 [9] | IC50 [10]
1 | > 33.3 mg/L | > 33.3 mg/L | 33.3 mg/L (≈ 74.4 µM) | > 33.3 mg/L | > 33.3 mg/L | > 33.3 mg/L | > 33.3 mg/L | Active | CC1=CCC[C@H]2[C@](C)(CC3=C(O)C(=O)C=C(NCCC[S+](C)[O-])C3=O)[C@@H](C)CC[C@]12C (stereo partly drawn) [NAKIJIQUINONE I] | 2.9 mg/L (≈ 6.48 µM) | 2.4 mg/L (≈ 5.36 µM) | 5.6 mg/L (≈ 12.5 µM)
2 | 33.3 mg/L (≈ 72.9 µM) | > 33.3 mg/L | 16.7 mg/L (≈ 36.6 µM) | 33.3 mg/L (≈ 72.9 µM) | 8.35 mg/L (≈ 18.3 µM) | 8.35 mg/L (≈ 18.3 µM) | 16.7 mg/L (≈ 36.6 µM) | Active | CC1=CCC[C@H]2[C@](C)(CC3=C(O)C(=O)C=C(NCCCCNC(=N)N)C3=O)[C@@H](C)CC[C@]12C [NAKIJIQUINONES H] | 2.4 mg/L (≈ 5.26 µM) | 8.5 mg/L (≈ 18.6 µM) | > 10 mg/L
3 | 33.3 mg/L (≈ 76.1 µM) | > 33.3 mg/L | 33.3 mg/L (≈ 76.1 µM) | 33.3 mg/L (≈ 76.1 µM) | > 33.3 mg/L | > 33.3 mg/L | > 33.3 mg/L | Active | CC1=CCC[C@H]2[C@](C)(CC3=C(O)C(=O)C=C(NCCc4cnc[nH]4)C3=O)[C@@H](C)CC[C@]12C [NAKIJIQUINONES G] | 3.2 mg/L (≈ 7.31 µM) | 2.9 mg/L (≈ 6.63 µM) | 4.8 mg/L (≈ 11 µM)
